Source: the OligoGym collection
HELM strings list units from the 5' end as sugar, base in round brackets, then linkage (d deoxyribose, r ribose, m 2'-O-methyl, p phosphodiester). Strings are as the collection lists them; they lack the last nucleoside at the 3' end of the tested compound. [moe] = 2'-O-(2-methoxyethyl) (MOE); [sp] = phosphorothioate linkage; [m5C] = 5-methylcytosine

Molecular target: C9ORF72
Assay: mouse, dose not given
Details: ASO

Q: Which 3 h FOB score does the source give for “RNA1{[moe]([m5C])[sp].[moe]([m5C])p.[moe](G)p.[moe](G)p.d([m5C])[sp].d([m5C])[sp].d([m5C])[sp].d([m5C])[sp].d(T)[sp].d(A)[sp].d(G)[sp].d([m5C])[sp].d(G)[sp].d([m5C])[sp].[moe](G)p.[moe]([m5C])p.[moe](G)p.[moe](A)[sp].[moe]([m5C])}$$$$ (last 3' nucleoside missing)” here?
A: 4.25 score 0-7

Q: “RNA1{[moe](G)[sp].[moe](G)[sp].[moe](T)[sp].[moe](A)[sp].[moe](A)[sp].d([m5C])[sp].d(T)[sp].d(T)[sp].d([m5C])[sp].d(A)[sp].d(A)[sp].d(A)[sp].d([m5C])[sp].d(T)[sp].d([m5C])[sp].[moe](T)[sp].[moe](T)[sp].[moe](G)[sp].[moe](G)}$$$$ (last 3' nucleoside missing)” was tested. Which 3 h FOB score did it give?
A: 7 score 0-7

Q: Which 3 h FOB score does the source give for “RNA1{[moe](G)[sp].[moe]([m5C])p.[moe]([m5C])p.[moe]([m5C])p.[moe]([m5C])p.[moe](T)[sp].d(A)[sp].d(G)[sp].d([m5C])[sp].d(G)[sp].d([m5C])[sp].d(G)[sp].d([m5C])[sp].d(G)[sp].[moe](A)p.[moe]([m5C])[sp].[moe](T)}$$$$ (last 3' nucleoside missing)” here?
A: 1 score 0-7

Q: “RNA1{[moe](T)[sp].[moe]([m5C])p.[moe](T)p.[moe](G)p.[moe](T)p.[moe]([m5C])[sp].d(T)[sp].d(T)[sp].d(T)[sp].d(G)[sp].d(G)[sp].d(A)[sp].d(G)[sp].d([m5C])[sp].[moe]([m5C])p.[moe]([m5C])[sp].[moe](A)}$$$$ (last 3' nucleoside missing)” was tested. Which 3 h FOB score did it give?
A: 5.5 score 0-7

Q: “RNA1{[moe](G)[sp].[moe](T)p.[moe](T)p.[moe](A)[sp].d(A)[sp].d(T)[sp].d([m5C])[sp].d(T)[sp].d(T)[sp].d(T)[sp].d(A)[sp].d(T)[sp].[moe]([m5C])p.[moe](A)p.[moe](G)p.[moe](G)[sp].[moe](T)}$$$$ (last 3' nucleoside missing)” was tested. Which 3 h FOB score did it give?
A: 1 score 0-7

Q: Which 3 h FOB score does the source give for “RNA1{[moe](G)[sp].[moe](G)p.[moe]([m5C])p.[moe]([m5C])p.[moe]([m5C])p.[moe]([m5C])p.d(T)[sp].d(A)[sp].d(G)[sp].d([m5C])[sp].d(G)[sp].d([m5C])[sp].d(G)[sp].d([m5C])[sp].d(G)[sp].d(A)[sp].[moe]([m5C])p.[moe](T)[sp].[moe]([m5C])}$$$$ (last 3' nucleoside missing)” here?
A: 1.25 score 0-7

Q: For “RNA1{[moe]([m5C])[sp].[moe](T)p.[moe](G)p.d(G)[sp].d(T)[sp].d(T)[sp].d(A)[sp].d(A)[sp].d(T)[sp].d([m5C])[sp].d(T)[sp].d(T)[sp].d(T)[sp].[moe](A)p.[moe](T)p.[moe]([m5C])p.[moe](A)p.[moe](G)[sp].[moe](G)}$$$$ (last 3' nucleoside missing)”, which 3 h FOB score is on record?
A: 0 score 0-7

Q: With “RNA1{[moe](G)[sp].[moe](G)p.[moe]([m5C])p.[moe](T)[sp].d(G)[sp].d([m5C])[sp].d(G)[sp].d(G)[sp].d(T)[sp].d(T)[sp].d(G)[sp].d(T)[sp].[moe](T)p.[moe](T)p.[moe]([m5C])p.[moe]([m5C])[sp].[moe]([m5C])}$$$$ (last 3' nucleoside missing)” as the substance, how does the 3 h FOB score read?
A: 6 score 0-7

Q: Which 3 h FOB score does the source give for “RNA1{[moe]([m5C])[sp].[moe]([m5C])p.[moe]([m5C])p.[moe]([m5C])[sp].d(T)[sp].d(A)[sp].d(G)[sp].d([m5C])[sp].d(G)[sp].d([m5C])[sp].d(G)[sp].d([m5C])[sp].[moe](G)p.[moe](A)p.[moe]([m5C])p.[moe](T)[sp].[moe]([m5C])}$$$$ (last 3' nucleoside missing)” here?
A: 1 score 0-7

Q: How did the 3 h FOB score turn out when “RNA1{[moe](T)[sp].[moe]([m5C])p.[moe](T)p.[moe](G)p.d(T)[sp].d([m5C])[sp].d(T)[sp].d(T)[sp].d(T)[sp].d(G)[sp].d(G)[sp].d(A)[sp].d(G)[sp].d([m5C])[sp].[moe]([m5C])p.[moe]([m5C])p.[moe](A)p.[moe](A)[sp].[moe](A)}$$$$ (last 3' nucleoside missing)” was run?
A: 6.75 score 0-7

Q: For “RNA1{[moe]([m5C])[sp].[moe](T)p.[moe](G)p.[moe](G)p.d(T)[sp].d(T)[sp].d(A)[sp].d(A)[sp].d(T)[sp].d([m5C])[sp].d(T)[sp].d(T)[sp].d(T)[sp].d(A)[sp].[moe](T)p.[moe]([m5C])p.[moe](A)p.[moe](G)[sp].[moe](G)}$$$$ (last 3' nucleoside missing)”, which 3 h FOB score is on record?
A: 0 score 0-7

Q: “RNA1{[moe](G)[sp].[moe](G)p.[moe]([m5C])p.[moe](T)p.[moe](G)p.[moe]([m5C])[sp].d(G)[sp].d(G)[sp].d(T)[sp].d(T)[sp].d(G)[sp].d(T)[sp].d(T)[sp].d(T)[sp].[moe]([m5C])p.[moe]([m5C])[sp].[moe]([m5C])}$$$$ (last 3' nucleoside missing)” was tested. Which 3 h FOB score did it give?
A: 2.5 score 0-7

Q: “RNA1{[moe]([m5C])[sp].[moe](T)p.[moe](G)p.[moe](G)p.[moe](T)p.[moe](T)p.[moe](A)p.d(A)[sp].d(T)[sp].d([m5C])[sp].d(T)[sp].d(T)[sp].d(T)[sp].d(A)[sp].d(T)[sp].d([m5C])[sp].d(A)[sp].[moe](G)[sp].[moe](G)}$$$$ (last 3' nucleoside missing)” was tested. Which 3 h FOB score did it give?
A: 2.25 score 0-7

Q: For “RNA1{[moe](A)[sp].[moe](G)p.[moe](G)p.[moe]([m5C])p.[moe](T)p.d(G)[sp].d([m5C])[sp].d(G)[sp].d(G)[sp].d(T)[sp].d(T)[sp].d(G)[sp].d(T)[sp].d(T)[sp].[moe](T)p.[moe]([m5C])p.[moe]([m5C])[sp].[moe]([m5C])}$$$$ (last 3' nucleoside missing)”, which 3 h FOB score is on record?
A: 6.25 score 0-7

Q: Which 3 h FOB score does the source give for “RNA1{[moe](T)[sp].[moe](G)p.[moe](G)p.[moe](T)p.d(T)[sp].d(A)[sp].d(A)[sp].d(T)[sp].d([m5C])[sp].d(T)[sp].d(T)[sp].d(T)[sp].d(A)[sp].d(T)[sp].[moe]([m5C])p.[moe](A)p.[moe](G)p.[moe](G)[sp].[moe](T)}$$$$ (last 3' nucleoside missing)” here?
A: 1 score 0-7

Q: With “RNA1{[moe](A)[sp].[moe](A)[sp].[moe](T)[sp].[moe]([m5C])[sp].[moe](T)[sp].d(T)[sp].d(T)[sp].d(A)[sp].d(T)[sp].d([m5C])[sp].d(A)[sp].d(G)[sp].d(G)[sp].d(T)[sp].d([m5C])[sp].[moe](T)[sp].[moe](T)[sp].[moe](T)[sp].[moe](T)}$$$$ (last 3' nucleoside missing)” as the substance, how does the 3 h FOB score read?
A: 6.5 score 0-7

Q: For “RNA1{[moe]([m5C])[sp].[moe]([m5C])p.[moe](G)p.[moe](G)p.[moe]([m5C])p.d([m5C])[sp].d([m5C])[sp].d([m5C])[sp].d(T)[sp].d(A)[sp].d(G)[sp].d([m5C])[sp].d(G)[sp].d([m5C])[sp].[moe](G)p.[moe]([m5C])p.[moe](G)[sp].[moe](A)}$$$$ (last 3' nucleoside missing)”, which 3 h FOB score is on record?
A: 4.5 score 0-7

Q: For “RNA1{[moe](T)[sp].[moe]([m5C])p.[moe](T)p.[moe](G)[sp].d(T)[sp].d([m5C])[sp].d(T)[sp].d(T)[sp].d(T)[sp].d(G)[sp].d(G)[sp].d(A)[sp].[moe](G)p.[moe]([m5C])p.[moe]([m5C])p.[moe]([m5C])[sp].[moe](A)}$$$$ (last 3' nucleoside missing)”, which 3 h FOB score is on record?
A: 5.25 score 0-7

Q: “RNA1{[moe]([m5C])[sp].[moe]([m5C])p.[moe](G)p.d(G)[sp].d([m5C])[sp].d([m5C])[sp].d([m5C])[sp].d([m5C])[sp].d(T)[sp].d(A)[sp].d(G)[sp].d([m5C])[sp].d(G)[sp].[moe]([m5C])p.[moe](G)p.[moe]([m5C])p.[moe](G)p.[moe](A)[sp].[moe]([m5C])}$$$$ (last 3' nucleoside missing)” was tested. Which 3 h FOB score did it give?
A: 3.25 score 0-7

Q: For “RNA1{[moe](G)[sp].[moe](G)p.[moe]([m5C])p.[moe]([m5C])[sp].d([m5C])[sp].d([m5C])[sp].d(T)[sp].d(A)[sp].d(G)[sp].d([m5C])[sp].d(G)[sp].d([m5C])[sp].[moe](G)p.[moe]([m5C])p.[moe](G)p.[moe](A)[sp].[moe]([m5C])}$$$$ (last 3' nucleoside missing)”, which 3 h FOB score is on record?
A: 2.5 score 0-7

Q: For “RNA1{[moe](A)[sp].[moe](G)p.[moe](G)p.[moe]([m5C])[sp].d(T)[sp].d(G)[sp].d([m5C])[sp].d(G)[sp].d(G)[sp].d(T)[sp].d(T)[sp].d(G)[sp].[moe](T)p.[moe](T)p.[moe](T)p.[moe]([m5C])[sp].[moe]([m5C])}$$$$ (last 3' nucleoside missing)”, which 3 h FOB score is on record?
A: 7 score 0-7

Q: With “RNA1{[moe]([m5C])[sp].[moe](T)p.[moe](G)p.[moe]([m5C])p.[moe](G)p.[moe](A)p.[moe](T)p.d([m5C])[sp].d([m5C])[sp].d([m5C])[sp].d([m5C])[sp].d(A)[sp].d(T)[sp].d(T)[sp].d([m5C])[sp].d([m5C])[sp].d(A)[sp].[moe](G)[sp].[moe](T)}$$$$ (last 3' nucleoside missing)” as the substance, how does the 3 h FOB score read?
A: 0.25 score 0-7

Q: “RNA1{[moe](T)[sp].[moe](G)p.[moe](G)p.[moe](T)p.[moe](T)p.[moe](A)[sp].d(A)[sp].d(T)[sp].d([m5C])[sp].d(T)[sp].d(T)[sp].d(T)[sp].d(A)[sp].d(T)[sp].[moe]([m5C])p.[moe](A)[sp].[moe](G)}$$$$ (last 3' nucleoside missing)” was tested. Which 3 h FOB score did it give?
A: 6.25 score 0-7

Q: With “RNA1{[moe]([m5C])[sp].[moe](A)p.[moe](G)p.[moe](G)p.[moe]([m5C])p.[moe](T)[sp].d(G)[sp].d([m5C])[sp].d(G)[sp].d(G)[sp].d(T)[sp].d(T)[sp].d(G)[sp].d(T)[sp].[moe](T)p.[moe](T)[sp].[moe]([m5C])}$$$$ (last 3' nucleoside missing)” as the substance, how does the 3 h FOB score read?
A: 4.5 score 0-7

Q: With “RNA1{[moe](A)[sp].[moe](G)p.[moe](G)p.[moe]([m5C])p.[moe](T)p.[moe](G)[sp].d([m5C])[sp].d(G)[sp].d(G)[sp].d(T)[sp].d(T)[sp].d(G)[sp].d(T)[sp].d(T)[sp].[moe](T)p.[moe]([m5C])[sp].[moe]([m5C])}$$$$ (last 3' nucleoside missing)” as the substance, how does the 3 h FOB score read?
A: 5.25 score 0-7

Q: How did the 3 h FOB score turn out when “RNA1{[moe](A)[sp].[moe](G)p.[moe](G)p.[moe]([m5C])p.[moe](T)p.[moe](G)p.d([m5C])[sp].d(G)[sp].d(G)[sp].d(T)[sp].d(T)[sp].d(G)[sp].d(T)[sp].d(T)[sp].d(T)[sp].d([m5C])[sp].[moe]([m5C])p.[moe]([m5C])[sp].[moe](T)}$$$$ (last 3' nucleoside missing)” was run?
A: 4 score 0-7
